Laboratory results as given in patent publication US20160297833A1, “THIENOPYRIMIDINES AS MKNK1 AND MKNK2 INHIBITORS” (BAYER PHARMA AKTIENGESELLSCHAFT, priority 2013, published 2016).

Each compound was assayed against T1, human full-length MKNK1 (Homo sapiens, UniProt Q9BUB5, T385D) (assay: MKNK1 kinase high ATP assay (TR-FRET)). Settings: Table 1; MKNK1 kinase high ATP assay, 2 mM ATP; read-out: MKNK1 IC50.
T1 construct: GST (N); purchased Carna Biosciences 02-145; host or cells: insect cells (baculovirus expression system)
Type: biochemical
Outline: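 Full-length human MKNK1 (T385D) preincubated 15 min at 22 °C with compound in HEPES pH 7.5/MgCl2/DTT buffer; reaction with 2 mM ATP (final) and 0.06 μM biotinylated peptide (final), 30 min at 22 °C.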

T1 sequence (Q9BUB5 1-424 isoform Q9BUB5-2 T344D): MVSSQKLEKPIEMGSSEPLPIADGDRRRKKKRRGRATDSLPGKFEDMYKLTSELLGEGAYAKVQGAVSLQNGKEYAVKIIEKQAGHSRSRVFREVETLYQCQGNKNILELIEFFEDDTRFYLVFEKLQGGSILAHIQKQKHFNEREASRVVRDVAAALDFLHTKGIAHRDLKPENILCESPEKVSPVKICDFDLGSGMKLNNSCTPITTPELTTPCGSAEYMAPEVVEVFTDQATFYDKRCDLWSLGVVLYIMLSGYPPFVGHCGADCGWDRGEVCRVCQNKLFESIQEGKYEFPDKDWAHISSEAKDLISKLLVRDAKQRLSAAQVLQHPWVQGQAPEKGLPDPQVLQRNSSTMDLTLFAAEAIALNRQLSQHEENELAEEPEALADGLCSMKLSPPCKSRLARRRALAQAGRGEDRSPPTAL

Question: With CCOc1cc2[nH]ncc2cc1Nc1ncnc2sc3c(c12)CC[C@H](C(=O)N1C[C@@H](O)[C@H](O)C1)C3 [Example 75, [(3R,4R)-3,4-Dihydroxypyrrolidin-1-yl]{(7S)-4-[(6-ethoxy-1H-indazol-5-yl)amino]-5,6,7,8-tetrahydro[1]benzothieno[2,3-d]pyrimidin-7-yl}methanone] as the compound, how does the IC50 read?
Answer: 0.3 nM

Question: For CCOc1cc2[nH]ncc2cc1Nc1ncnc2sc3c(c12)CC[C@H](C(=O)N1C[C@H](O)[C@@H](O)C1)C3 [Example 76, [(3S,4S)-3,4-Dihydroxypyrrolidin-1-yl]{(7S)-4-[(6-ethoxy-1H-indazol-5-yl)amino]-5,6,7,8-tetrahydro[1]benzothieno[2,3-d]pyrimidin-7-yl}methanone], which IC50 is on record?
Answer: 0.4 nM

Question: With CCOc1cc2[nH]ncc2cc1Nc1ncnc2sc3c(c12)CC[C@H](C(=O)N(CCO)CCO)C3 [Example 77, (7S)-4-[(6-Ethoxy-1H-indazol-5-yl)amino]-N,N-bis(2-hydroxyethyl)-5,6,7,8-tetrahydro[1]benzothieno[2,3-d]pyrimidine-7-carboxamide] as the compound, how does the IC50 read?
Answer: 0.1 nM

Question: CC(C)Oc1cc2[nH]ncc2cc1Nc1ncnc2sc3c(c12)CC[C@H](C(=O)N(C)C)C3 [Example 78, (7S)—N,N-Dimethyl-4-{[6-(propan-2-yloxy)-1H-indazol-5-yl]amino}-5,6,7,8-tetrahydro[1]benzothieno[2,3-d]pyrimidine-7-carboxamide] was tested. Which IC50 did it give?
Answer: 0.3 nM

Question: How did the IC50 turn out when CC(C)Oc1cc2[nH]ncc2cc1Nc1ncnc2sc3c(c12)CC[C@@H](C(=O)N(C)C)C3 [Example 79, (7R)—N,N-Dimethyl-4-{[6-(propan-2-yloxy)-1H-indazol-5-yl]amino}-5,6,7,8-tetrahydro[1]benzothieno[2,3-d]pyrimidine-7-carboxamide] was run?
Answer: 12.1 nM

Question: How did the IC50 turn out when CCN(C(=O)[C@H]1CCc2c(sc3ncnc(Nc4cc5cn[nH]c5cc4OC(C)C)c23)C1)C(C)C [Example 80, (7S)—N-Ethyl-N-(propan-2-yl)-4-{[6-(propan-2-yloxy)-1H-indazol-5-yl]amino}-5,6,7,8-tetrahydro[1]benzothieno[2,3-d]pyrimidine-7-carboxamide] was run?
Answer: 0.3 nM

Question: CC(C)Oc1cc2[nH]ncc2cc1Nc1ncnc2sc3c(c12)CC[C@H](C(=O)N(C)CC(F)F)C3 [Example 81, (7S)—N-(2,2-Difluoroethyl)-N-methyl-4-{[6-(propan-2-yloxy)-1H-indazol-5-yl]amino}-5,6,7,8-tetrahydro[1]benzothieno[2,3-d]pyrimidine-7-carboxamide] was tested. Which IC50 did it give?
Answer: 0.3 nM

Question: CC(C)Oc1cc2[nH]ncc2cc1Nc1ncnc2sc3c(c12)CC[C@@H](C(=O)N(C)CC(F)F)C3 [Example 82, (7R)—N-(2,2-Difluoroethyl)-N-methyl-4-{[6-(propan-2-yloxy)-1H-indazol-5-yl]amino}-5,6,7,8-tetrahydro[1]benzothieno[2,3-d]pyrimidine-7-carboxamide] was tested. Which IC50 did it give?
Answer: 8.1 nM

Question: Which IC50 does the source give for CC(C)Oc1cc2[nH]ncc2cc1Nc1ncnc2sc3c(c12)CC[C@H](C(=O)N1CCCC1)C3 [Example 83, [(7S)-4-{[6-(Propan-2-yloxy)-1H-indazol-5-yl]amino}-5,6,7,8-tetrahydro[1]benzothieno[2,3-d]pyrimidin-7-yl](pyrrolidin-1-yl)methanone] here?
Answer: 0.3 nM

Question: For CC(C)Oc1cc2[nH]ncc2cc1Nc1ncnc2sc3c(c12)CC[C@H](C(=O)N1CCOC[C@@H]1C)C3 [Example 84, [(3S)-3-Methylmorpholin-4-yl][(7S)-4-{[6-(propan-2-yloxy)-1H-indazol-5-yl]amino}-5,6,7,8-tetrahydro[1]benzothieno[2,3-d]pyrimidin-7-yl]methanone], which IC50 is on record?
Answer: 0.7 nM

Question: Which IC50 does the source give for CC(C)Oc1cc2[nH]ncc2cc1Nc1ncnc2sc3c(c12)CC[C@H](C(=O)N1CCOC[C@H]1C)C3 [Example 85, [(3R)-3-Methylmorpholin-4-yl][(7S)-4-{[6-(propan-2-yloxy)-1H-indazol-5-yl]amino}-5,6,7,8-tetrahydro[1]benzothieno[2,3-d]pyrimidin-7-yl]methanone] here?
Answer: 0.6 nM

Question: How did the IC50 turn out when CC(C)Oc1cc2[nH]ncc2cc1Nc1ncnc2sc3c(c12)CC[C@H](C(=O)N1C[C@@H]2C[C@H]1CO2)C3 [Example 86, (1S,4S)-2-Oxa-5-azabicyclo[2.2.1]hept-5-yl[(7S)-4-{[6-(propan-2-yloxy)-1H-indazol-5-yl]amino}-5,6,7,8-tetrahydro[1]benzothieno[2,3-d]pyrimidin-7-yl]methanone] was run?
Answer: 0.6 nM

Question: How did the IC50 turn out when CC(C)Oc1cc2[nH]ncc2cc1Nc1ncnc2sc3c(c12)CC[C@H](C(=O)N1C[C@H]2C[C@@H]1CO2)C3 [Example 87, (1R,4R)-2-Oxa-5-azabicyclo[2.2.1]hept-5-yl[(7S)-4-{[6-(propan-2-yloxy)-1H-indazol-5-yl]amino}-5,6,7,8-tetrahydro[1]benzothieno[2,3-d]pyrimidin-7-yl]methanone] was run?
Answer: 0.3 nM

Question: For CC(C)Oc1cc2[nH]ncc2cc1Nc1ncnc2sc3c(c12)CC[C@H](C(=O)N1CC2(COC2)C1)C3 [Example 88, 2-Oxa-6-azaspiro[3.3]hept-6-yl[(7S)-4-{[6-(propan-2-yloxy)-1H-indazol-5-yl]amino}-5,6,7,8-tetrahydro[1]benzothieno[2,3-d]pyrimidin-7-yl]methanone], which IC50 is on record?
Answer: 0.4 nM

Question: For CC(C)Oc1cc2[nH]ncc2cc1Nc1ncnc2sc3c(c12)CC[C@@H](C(=O)N1CC2(COC2)C1)C3 [Example 89, 2-Oxa-6-azaspiro[3.3]hept-6-yl[(7R)-4-{[6-(propan-2-yloxy)-1H-indazol-5-yl]amino}-5,6,7,8-tetrahydro[1]benzothieno[2,3-d]pyrimidin-7-yl]methanone], which IC50 is on record?
Answer: 6 nM

Question: With CC(C)Oc1cc2[nH]ncc2cc1Nc1ncnc2sc3c(c12)CC[C@H](C(=O)N(C)CCO)C3 [Example 90, (7S)—N-(2-Hydroxyethyl)-N-methyl-4-{[6-(propan-2-yloxy)-1H-indazol-5-yl]amino}-5,6,7,8-tetrahydro[1]benzothieno[2,3-d]pyrimidine-7-carboxamide] as the compound, how does the IC50 read?
Answer: 0.6 nM

Question: CC(C)Oc1cc2[nH]ncc2cc1Nc1ncnc2sc3c(c12)CC[C@H](C(=O)N(CCO)CCO)C3 [Example 91, (7S)—N,N-bis(2-Hydroxyethyl)-4-{[6-(propan-2-yloxy)-1H-indazol-5-yl]amino}-5,6,7,8-tetrahydro[1]benzothieno[2,3-d]pyrimidine-7-carboxamide] was tested. Which IC50 did it give?
Answer: 0.1 nM

Question: For CC(C)Oc1cc2[nH]ncc2cc1Nc1ncnc2sc3c(c12)CC[C@H](C(=O)N1C[C@H](O)[C@@H](O)C1)C3 [Example 92, [(3S,4S)-3,4-Dihydroxypyrrolidin-1-yl][(7S)-4-{[6-(propan-2-yloxy)-1H-indazol-5-yl]amino}-5,6,7,8-tetrahydro[1]benzothieno[2,3-d]pyrimidin-7-yl]methanone], which IC50 is on record?
Answer: 0.2 nM

Question: With CC(C)Oc1cc2[nH]ncc2cc1Nc1ncnc2sc3c(c12)CC[C@H](C(=O)N1C[C@@H](O)[C@H](O)C1)C3 [Example 93, [(3R,4R)-3,4-Dihydroxypyrrolidin-1-yl][(7S)-4-{[6-(propan-2-yloxy)-1H-indazol-5-yl]amino}-5,6,7,8-tetrahydro[1]benzothieno[2,3-d]pyrimidin-7-yl]methanone] as the compound, how does the IC50 read?
Answer: 0.1 nM

Question: For CCCOc1cc2[nH]ncc2cc1Nc1ncnc2sc3c(c12)CC[C@H](C(=O)N(C)C)C3 [Example 94, (7S)—N,N-Dimethyl-4-[(6-propoxy-1H-indazol-5-yl)amino]-5,6,7,8-tetrahydro[1]benzothieno[2,3-d]pyrimidine-7-carboxamide], which IC50 is on record?
Answer: 4.8 nM

Same assay, conditions: Table 2; ratio of the IC50-value of an R-enantiomer and its corresponding S-enantiomer

Question: CC(C)Oc1cc2[nH]ncc2cc1Nc1ncnc2sc3c(c12)CC[C@H](C(=O)N(C)C)C3 [Example 78, (7S)—N,N-Dimethyl-4-{[6-(propan-2-yloxy)-1H-indazol-5-yl]amino}-5,6,7,8-tetrahydro[1]benzothieno[2,3-d]pyrimidine-7-carboxamide] was tested. Which “Activity-Ratio MKNK1” value did it give?
Answer: 42.9

Question: CC(C)Oc1cc2[nH]ncc2cc1Nc1ncnc2sc3c(c12)CC[C@H](C(=O)N(C)CC(F)F)C3 [Example 81, (7S)—N-(2,2-Difluoroethyl)-N-methyl-4-{[6-(propan-2-yloxy)-1H-indazol-5-yl]amino}-5,6,7,8-tetrahydro[1]benzothieno[2,3-d]pyrimidine-7-carboxamide] was tested. Which “Activity-Ratio MKNK1” value did it give?
Answer: 27.5

Question: For CC(C)Oc1cc2[nH]ncc2cc1Nc1ncnc2sc3c(c12)CC[C@H](C(=O)N1CC2(COC2)C1)C3 [Example 88, 2-Oxa-6-azaspiro[3.3]hept-6-yl[(7S)-4-{[6-(propan-2-yloxy)-1H-indazol-5-yl]amino}-5,6,7,8-tetrahydro[1]benzothieno[2,3-d]pyrimidin-7-yl]methanone], which “Activity-Ratio MKNK1” value is on record?
Answer: 15.0
